Here are results for 24 substances from patent US20240376154A1, “BIS-INTERCALATING PEPTIDES, CONJUGATES AND METHODS OF USE” (ZYMEWORKS BC INC., priority 2023, published 2024).

For this data set the following is noted: amide bond; 32-membered ring.
“Benzyl tert-butyl ((3aS,7R,13aS,22S,26R,32aS)-22-isopropyl-18,21,37-trimethyl-4,8,14,17,20,23,27,33,36,39-decaoxooctatriacontahydro-1H,10H-dipyrido[1,2-a:1′,2′-q]pyrrolo[1,2-j][1,4,7,10,13,17,20,23,26,29]decaazacyclodotriacontine-7,26-diyl)dicarbamate” gave a ring closure, isolated yield of 62%.
Then “Benzyl tert-butyl ((4aS,8R,14aS,23S,27R,33aS)-23-isopropyl-19,22,38-trimethyl-5,9,15,18,21,24,28,34,37,40-decaoxotetracontahydro-11H-tripyrido[1,2-a:1′,2′-j:1″,2″-q][1,4,7,10,13,17,20,23,26,29]decaazacyclodotriacontine-8,27-diyl)dicarbamate”, with 64%; and “Benzyl tert-butyl ((5aS,9R,15aS,24S,28R,34aS)-24-isopropyl-20,23,39-trimethyl-6,10,16,19,22,25,29,35,38,41-decaoxotetracontahydro-1H,12H-azepino[1,2-j]dipyrido[1,2-a:1′,2′-q][1,4,7,10,13,17,20,23,26,29]decaazacyclodotriacontine-9,28-diyl)dicarbamate”, with 22%; and “Benzyl tert-butyl ((7R,8R,11S,19aS,26R,30S,38aS)-11,30-di((S)-sec-butyl)-8,12,15,31,34-pentamethyl-6,10,13,16,19,25,29,32,35,38-decaoxotetratriacontahydro-2H,6H,10H-dipyrido[2,1-b1: 2′,1′-l][1]oxa[4,7,10,13,17,20,23,26,29]nonaazacyclodotriacontine-7,26-diyl)dicarbamate”, with 71%.
“Benzyl tert-butyl ((7R,10aS,22aS,29R,32aS,44aS)-6,10,16,22,28,32,38,44-octaoxotetracontahydro-2H,19H-tetrapyrido[1,2-a1: 1′,2′-d: 1″,2″-k: 1′″,2′″-t][1,17]dioxa[4,7,11,14,20,23,27,30]octaazacyclodotriacontine-7,29-diyl)dicarbamate” had a ring closure, isolated yield of 44%.
Under “Benzyl tert-butyl ((7R,10aS,23aS,30R,33aS,46aS)-19,42-dimethyl-6,10,17,20,23,29,33,40,43,46-decaoxotetratetracontahydro-6H,29H-bis(azepino)[1,2-j:1′,2′-z]dipyrido[1,2-a:1′,2′-q][1,4,7,10,13,17,20,23,26,29]decaazacyclodotriacontine-7,30-diyl)dicarbamate” stands 74%; under “Benzyl tert-butyl ((7R,11S,19aS,26R,30S,38aS)-11,15,30,34-tetraisopropyl-12,31-dimethyl-6,10,13,16,19,25,29,32,35,38-decaoxohexatriacontahydro-2H,6H-dipyrido[1,2-a:1′,2′-q][1,4,7,10,13,17,20,23,26,29]decaazacyclodotriacontine-7,26-diyl)dicarbamate”, 94%.
Under “Benzyl tert-butyl ((7R,11S,19aS,26R,30S,38aS)-11,30-di((S)-sec-butyl)-12,15,31,34-tetramethyl-6,10,13,16,19,25,29,32,35,38-decaoxohexatriacontahydro-2H,6H-dipyrido[1,2-a:1′,2′-q][1,4,7,10,13,17,20,23,26,29]decaazacyclodotriacontine-7,26-diyl)dicarbamate” stands 90%; under “Benzyl tert-butyl ((7R,11S,19aS,26R,30S,38aS)-11,30-dicyclohexyl-12,15,31,34-tetramethyl-6,10,13,16,19,25,29,32,35,38-decaoxohexatriacontahydro-2H,6H-dipyrido[1,2-a:1′,2′-q][1,4,7,10,13,17,20,23,26,29]decaazacyclodotriacontine-7,26-diyl)dicarbamate”, 72%; under “Benzyl tert-butyl ((7R,11S,19aS,26R,30S,38aS)-11,30-diisopropyl-12,15,31,34-tetramethyl-6,10,13,16,19,25,29,32,35,38-decaoxohexatriacontahydro-2H,6H-dipyrido[1,2-a:1′,2′-q][1,4,7,10,13,17,20,23,26,29]decaazacyclodotriacontine-7,26-diyl)dicarbamate”, 69%.
Then “Benzyl tert-butyl ((7R,11S,19aS,26R,30S,38aS)-11,30-diisopropyl-12,15,31,34-tetramethyl-6,10,13,16,19,25,29,32,35,38-decaoxotetratriacontahydro-2H,6H,10H-dipyrido[2,1-b1: 2′,1′-l][1]oxa[4,7,10,13,17,20,23,26,29]nonaazacyclodotriacontine-7,26-diyl)dicarbamate”, with 63%.
Substance “Benzyl tert-butyl ((7R,11S,19aS,26R,30S,38aS)-11,30-diisopropyl-12,31-dimethyl-6,10,13,16,19,25,29,32,35,38-decaoxo-15,34-dipropylhexatriacontahydro-2H,6H-dipyrido[1,2-a:1′,2′-q][1,4,7,10,13,17,20,23,26,29]decaazacyclodotriacontine-7,26-diyl)dicarbamate” had a ring closure, isolated yield of 85%.
“Benzyl tert-butyl ((7R,11S,19aS,26R,30S,38aS)-11,30-diisopropyl-12,31-dimethyl-6,10,13,16,19,25,29,32,35,38-decaoxohexatriacontahydro-2H,6H-dipyrido[1,2-a:1′,2′-q][1,4,7,10,13,17,20,23,26,29]decaazacyclodotriacontine-7,26-diyl)dicarbamate” came in with a ring closure, isolated yield of 53%.
“Benzyl tert-butyl ((7R,11S,19aS,26R,30S,38aS)-11,30-diisopropyl-12,31-dimethyl-6,10,13,19,25,29,32,38-octaoxodotriacontahydro-2H,6H,16H,25H-dipyrido[1,2-a1:1′,2′-k][1,17]dioxa[4,7,11,14,20,23,27,30]octaazacyclodotriacontine-7,26-diyl)dicarbamate” registered a ring closure, isolated yield of 58%.
Under “Benzyl tert-butyl ((7R,11S,19aS,26R,30S,38aS)-11-((S)-sec-butyl)-30-isopropyl-12,15,31,34-tetramethyl-6,10,13,16,19,25,29,32,35,38-decaoxohexatriacontahydro-2H,6H-dipyrido[1,2-a:1′,2′-q][1,4,7,10,13,17,20,23,26,29]decaazacyclodotriacontine-7,26-diyl)dicarbamate” stands 75%; under “Benzyl tert-butyl ((7R,11S,19aS,26R,30S,38aS)-11-cyclohexyl-30-isopropyl-12,15,31,34-tetramethyl-6,10,13,16,19,25,29,32,35,38-decaoxohexatriacontahydro-2H,6H-dipyrido[1,2-a:1′,2′-q][1,4,7,10,13,17,20,23,26,29]decaazacyclodotriacontine-7,26-diyl)dicarbamate”, 58%; under “Benzyl tert-butyl ((7R,11S,19aS,26R,30S,38aS)-11-isopropyl-12,15,31,34-tetramethyl-6,10,13,16,19,25,29,32,35,38-decaoxo-30-phenylhexatriacontahydro-2H,6H-dipyrido[1,2-a:1′,2′-q][1,4,7,10,13,17,20,23,26,29]decaazacyclodotriacontine-7,26-diyl)dicarbamate”, 26%.
On to “Benzyl tert-butyl ((7R,11S,19aS,26R,30S,38aS)-12,31-diethyl-11,30-diisopropyl-15,34-dimethyl-6,10,13,16,19,25,29,32,35,38-decaoxohexatriacontahydro-2H,6H-dipyrido[1,2-a:1′,2′-q][1,4,7,10,13,17,20,23,26,29]decaazacyclodotriacontine-7,26-diyl)dicarbamate”, for which the ring closure, isolated yield was 40%.
Under “Benzyl tert-butyl ((7R,11S,19aS,26R,30S,38aS)-15,34-diethyl-11,30-diisopropyl-12,31-dimethyl-6,10,13,16,19,25,29,32,35,38-decaoxohexatriacontahydro-2H,6H-dipyrido[1,2-a:1′,2′-q][1,4,7,10,13,17,20,23,26,29]decaazacyclodotriacontine-7,26-diyl)dicarbamate” stands 68%.
Then “Benzyl tert-butyl ((7R,19aS,26R,30S,38aS)-30-isopropyl-11,11,12,15,31,34-hexamethyl-6,10,13,16,19,25,29,32,35,38-decaoxohexatriacontahydro-2H,6H-dipyrido[1,2-a:1′,2′-q][1,4,7,10,13,17,20,23,26,29]decaazacyclodotriacontine-7,26-diyl)dicarbamate”, with 37%; and “Benzyl tert-butyl ((7′R,19a'S,26′R,30'S,38a'S)-30′-isopropyl-12′,15′,31′,34′-tetramethyl-6′,10′,13′,16′,19′,25′,29′,32′,35′,38′-decaoxotetratriacontahydro-2′H,6′H,12′H-spiro[cyclobutane-1,11′-dipyrido[1,2-a:1′,2′-q][1,4,7,10,13,17,20,23,26,29]decaazacyclodotriacontine]-7′,26′-diyl)dicarbamate”, with 43%.
“Benzyl tert-butyl ((7′R,19a'S,26′R,30'S,38a'S)-30′-isopropyl-12′,15′,31′,34′-tetramethyl-6′,10′,13′,16′,19′,25′,29′,32′,35′,38′-decaoxotetratriacontahydro-2′H,6′H,12′H-spiro[cyclopropane-1,11′-dipyrido[1,2-a:1′,2′-q][1,4,7,10,13,17,20,23,26,29]decaazacyclodotriacontine]-7′,26′-diyl)dicarbamate” came in with a ring closure, isolated yield of 48%.
Under “Benzyl tert-butyl ((13S,16R,19aS,32S,35R,38aS)-13,32-diisopropyl-8,14,27,33-tetramethyl-6,9,12,15,19,25,28,31,34,38-decaoxohexatriacontahydro-2H,6H-dipyrido[2,1-c: 2′,1′-s][1,4,7,10,13,17,20,23,26,29]decaazacyclodotriacontine-16,35-diyl)dicarbamate” stands 57%; under “Bis(4-nitrobenzyl) ((7R,11S,19aS,26R,30S,38aS)-11,30-diisopropyl-12,15,31,34-tetramethyl-6,13,16,19,25,32,35,38-octaoxodotriacontahydro-2H,6H,10H,25H-dipyrido[2,1-b1: 2′,1′-l][1,17]dioxa[4,7,10,13,20,23,26,29]octaazacyclodotriacontine-7,26-diyl)dicarbamate”, 68%.
